The source of these data is patent publication US20130023531A1, “PYRIMIDO[5,4-D]PYRIMIDYLAMINO PHENYL SULFONAMIDES AS SERINE/THREONINE KINASE INHIBITORS” (BOEHRINGER INGELHEIM INTERNATIONAL GMBH, priority 2011, published 2013).

For this assay, the system named is SK-MEL-28 cells (B-RAF V600E mutated). As to the kind of experiment: Inhibition of the proliferation of cultivated human melanoma cells (SK-MEL-28), AlamarBlue. Format: cell-based. The note with it: SK-MEL-28 melanoma cells, 72 h incubation. As for the experimental part:
Measurement of the Inhibition of the Proliferation of Cultivated Human Melanoma Cells (SK-MEL-28, B-RAF^V600E mutated)
For measuring the proliferation of cultivated human tumour cells, cells of the melanoma cell line SK-MEL-28 [from American Type Culture Collection (ATCC)] are cultivated in MEM medium, supplemented with 10% foetal calf serum, 2% sodium bicarbonate, 1 mM sodium pyruvate, 1% non-essential amino acids (e.g. from Cambrex, # BE13-114E) and 2 mM glutamine. SK-MEL-28 cells are placed in 96-well flat bottomed dishes in a density of 2500 cells per well in supplemented MEM medium (see above) and incubated overnight in an incubator (at 37° C. and 5% CO2). The active substances are added to the cells in different concentrations, so that a concentration range of 50 μM to 3.2 nM is covered. If necessary the initial concentration of 50 μM is changed to 10 μM or 2 μM and further dilution is carried out accordingly (up to 0.6 nM or 0.12 nM). After an incubation period of a further 72 h 20 μL AlamarBlue reagent (Serotec Ltd., # BUF012B) are added to each well and the cells are incubated for a further 3-6 h. The colour change of the AlamarBlue reagent is determined in a fluorescence spectrophotometer (e.g. Gemini, Molecular Devices). EC50 values are calculated using a software program (GraphPadPrizm).

For the compound `CCCS(=O)(=O)Nc1ccc(F)c(Nc2ncnc3cnc(-n4cnc(C)c4)nc23)c1F` [Example I-1], it took 0.276 µM to reach a half-maximal effect (Homo sapiens, SK-MEL-28, 72 h) (EC50).
The same measure, in the same setting: the result for `CCCS(=O)(=O)Nc1ccc(F)c(Nc2ncnc3cnc(N4CCOCC4)nc23)c1F` [Example I-2] reads 0.514 µM; that for `CCCS(=O)(=O)Nc1ccc(F)c(Nc2ncnc3cnc(N4CCN(CCOC)CC4)nc23)c1F` [Example I-3], 1.19 µM; that for `CCCS(=O)(=O)Nc1ccc(F)c(Nc2ncnc3cnc(N4CCN(C)CC4)nc23)c1F` [Example I-4], 1.48 µM.
Same read-out and setting: the result for `CCCS(=O)(=O)Nc1ccc(F)c(Nc2ncnc3cnc(NC4CCOC4)nc23)c1F` (stereo not drawn) [Example I-5] reads 0.668 µM.
Still for that read-out and setting: the result for `CCCS(=O)(=O)Nc1ccc(F)c(Nc2ncnc3cnc(N4CCC(F)(F)C4)nc23)c1F` [Example I-6] reads 0.493 µM.
In the case of `CCCS(=O)(=O)Nc1ccc(F)c(Nc2ncnc3cnc(N4CC[C@H](F)C4)nc23)c1F` [Example I-7], the EC50 came to 0.176 µM.
`CCCS(=O)(=O)Nc1ccc(F)c(Nc2ncnc3cnc(N4CC[C@H](F)C4)nc23)c1F` [Example I-8] yielded an EC50 of 0.522 µM.
Compound `CCCS(=O)(=O)Nc1ccc(F)c(Nc2ncnc3cnc(N4CCN(CCN5CCOCC5)CC4)nc23)c1F` [Example I-9] registered an EC50 (Homo sapiens, SK-MEL-28, 72 h) of 1.14 µM.
Still for that read-out and setting: the result for `CCCS(=O)(=O)Nc1ccc(F)c(Nc2ncnc3cnc(NC4CC(N5CCN(C)CC5)C4)nc23)c1F` (stereo not drawn) [Example I-10] reads 1.27 µM; that for `CCCS(=O)(=O)Nc1ccc(F)c(Nc2ncnc3cnc(N4CCN(C5CCN(C)CC5)CC4)nc23)c1F` [Example I-11], 1.07 µM; that for `CCCS(=O)(=O)Nc1ccc(F)c(Nc2ncnc3cnc(N4CCC(CN5CCCC5)CC4)nc23)c1F` [Example I-12], 0.952 µM.
Same read-out and setting: the result for `CCCS(=O)(=O)Nc1ccc(F)c(Nc2ncnc3cnc(NC4CCN(C)CC4)nc23)c1F` [Example I-13] reads 1.48 µM; that for `CCCS(=O)(=O)Nc1ccc(F)c(Nc2ncnc3cnc(N4CCC(CN(CC)CC)CC4)nc23)c1F` [Example I-14], 1.67 µM.
On the same count and under the same terms, to `CCCS(=O)(=O)Nc1ccc(F)c(Nc2ncnc3cnc(N4CCN(CCN(C)C)CC4)nc23)c1F` [Example I-15] belongs 0.781 µM.
Consider `CCCS(=O)(=O)Nc1ccc(F)c(Nc2ncnc3cnc(N[C@H]4CC[C@H](N5CCOCC5)CC4)nc23)c1F` [Example I-16], for which, for the setting “Homo sapiens, SK-MEL-28, 72 h”, a half-maximal effect (EC50) was put at 1.03 µM.
Same read-out and setting: to `CCCS(=O)(=O)Nc1ccc(F)c(Nc2ncnc3cnc(NC4CCN(CCOC)CC4)nc23)c1F` [Example I-17] belongs 1.6 µM; to `CCCS(=O)(=O)Nc1ccc(F)c(Nc2ncnc3cnc(N4C[C@@H](C)O[C@@H](C)C4)nc23)c1F` [Example I-18], 0.774 µM.
The same measure, in the same setting: to `CCCS(=O)(=O)Nc1ccc(F)c(Nc2ncnc3cnc(N4CCC(CN(C)C)CC4)nc23)c1F` [Example I-19] belongs 1.25 µM.
On the same count and under the same terms, the result for `CCCS(=O)(=O)Nc1ccc(F)c(Nc2ncnc3cnc(N4CCC(C(C)N(C)C)CC4)nc23)c1F` (stereo not drawn) [Example I-20] reads 1.59 µM; that for `CCCS(=O)(=O)Nc1ccc(F)c(Nc2ncnc3cnc(N4CCC5(CCN(C)CC5)CC4)nc23)c1F` [Example I-21], 0.44 µM.
In turn, `CCCS(=O)(=O)Nc1ccc(F)c(Nc2ncnc3cnc(N[C@H]4CCOC4)nc23)c1F` [Example I-22] returned a 50% effective concentration (EC50) (Homo sapiens, SK-MEL-28, 72 h) of 0.919 µM.
Still for that read-out and setting: to `CCCS(=O)(=O)Nc1ccc(F)c(Nc2ncnc3cnc(N(C)C)nc23)c1F` [Example I-23] belongs 1.63 µM.
Same read-out and setting: to `CCCS(=O)(=O)Nc1ccc(F)c(Nc2ncnc3cnc(-n4cncn4)nc23)c1F` [Example I-24] belongs 1.5 µM; to `CCCS(=O)(=O)Nc1ccc(F)c(Nc2ncnc3cnc(-n4cnc(C)c4C)nc23)c1F` [Example I-25], 0.143 µM; to `CCCS(=O)(=O)Nc1ccc(F)c(Nc2ncnc3cnc(-n4cc(C)nc4C)nc23)c1F` [Example I-26], 0.212 µM.
Same read-out and setting: to `CCCS(=O)(=O)Nc1ccc(F)c(Nc2ncnc3cnc(-n4ccc(C)n4)nc23)c1F` [Example I-27] belongs 0.807 µM; to `CCCS(=O)(=O)Nc1ccc(F)c(Nc2ncnc3cnc(Nc4ccncc4)nc23)c1F` [Example I-28], 0.424 µM.
Where the note is “Homo sapiens, SK-MEL-28, 72 h”, `CCCS(=O)(=O)Nc1ccc(F)c(Nc2ncnc3cnc(Nc4ccc(N5CCN(C)CC5)cc4)nc23)c1F` [Example I-29] showed an EC50 of 0.526 µM. The EC50 values of the last two compounds are within 1.5-fold of each other.
The same measure, in the same setting: to `CCCS(=O)(=O)Nc1ccc(F)c(Nc2ncnc3cnc(-n4ccnc4)nc23)c1F` [Example I-30] belongs 0.504 µM; to `CCCS(=O)(=O)Nc1ccc(F)c(Nc2ncnc3cnc(-n4cccn4)nc23)c1F` [Example I-31], 0.936 µM.
Same read-out and setting: the result for `CCCS(=O)(=O)Nc1ccc(F)c(Nc2ncnc3cnc(-n4ccnc4C)nc23)c1F` [Example I-32] reads 0.297 µM.
With `CCCS(=O)(=O)Nc1ccc(F)c(Nc2ncnc3cnc(NCCOC)nc23)c1F` [Example I-33], the EC50 (Homo sapiens, SK-MEL-28, 72 h) stood at 1.8 µM.
